Results taken from patent publication US20230219956A1 (BETTA PHARMACEUTICALS CO.,LTD, priority 2019, published 2023).

How the values were obtained:
H358 cells = assay: Cell proliferation assay, H358 cells (Cell-titer Glo); assay type: cell-based; conditions: Homo sapiens, NCI-H358, 96 h incubation
Experimental: (§1) Pave the H358 cells on a 96-well ultra-low adsorption plate with 2000 cells and 190 μL/well. After incubating overnight, compound solutions of gradient concentration was prepared, and added 10 μL of DMSO solution of the test compound of each concentration to the cells of each well. The final concentration of the compound is 10000, 3333.3, 1111.1, 370.4, 123.5, 41.2, 13.7, 4.6, 1.5, 0 nM (the final concentration of DMSO is 0.25%). Incubated for 96 h at 37° C. and 5% CO2. 50 μL of Cell-titer Glo working solution was added to each well, shaked and mixed, and incubated at room temperature for 10 minutes. The multi-functional microplate reader read the luminescence value, and converted the luminescence value reading into inhibition percentage.
(§2) Inhibition percentage=(maximum value−reading)/(maximum value−minimum value)*100.
(§3) The “maximum value” was the DMSO control, the “minimum value” indicates the cell-free control group.
(§4) Graphpad Prism software was used to perform curve fitting and obtain IC50 value.
Refer to table 3 for the IC50 data of some compounds in the Examples for inhibiting H358 cells.

MIA-PACA-2 cells = assay: Cell proliferation assay, MIA-PACA-2 cells (Cell-titer Glo); assay type: cell-based; conditions: Homo sapiens, 96 h incubation
Experimental: as §1, with “the MIA-PACA-2” for “the H358”, “cells into” for “cells on”, “plate at 600 cells, 160” for “plate with 2000 cells and 190”, “added 40” for “added 10”, “10000, 2000, 400, 80, 16, 3.2, 0.64, 0.12, 0.025,” for “10000, 3333.3, 1111.1, 370.4, 123.5, 41.2, 13.7, 4.6, 1.5,”
as §2, §3, §4
Refer to Table 3 for the IC50 data of some compounds in the examples inhibiting MIA-PACA-2 cells.

IC50 (H358 cells) | IC50 (MIA-PACA-2 cells) | Structure (SMILES)
49.6 nM | 21 nM | C=CC(=O)N1CC2(CCN(c3nc(C4CCN(C)CC4)nc4c(OCCOC)c(-c5c(C)ccc6[nH]ncc56)c(C5CC5)cc34)CC2)C1 [Example 22, 1-(7-(6-cyclopropyl-8-(2-methoxyethoxy)-7-(5-methyl-1H-indazol-4-yl)-2-(1-methylpiperidin-4-yl)quinazolin-4-yl)-2,7-diazaspiro[3.5]nonan-2-yl)prop-2-en-1-one]
97.8 nM | 78 nM | C=CC(=O)N1CC2(CCN(c3nc(C4CN(CCC#N)C4)nc4c(OCC(F)(F)F)c(-c5c(C)ccc6[nH]ncc56)c(CC)cc34)CC2)C1 [Example 39, 3-(3-(4-(2-acryloyl-2,7-diazaspiro[3.5]nonan-7-yl)-6-ethyl-7-(5-methyl-1H-indazol-4-yl)-8-(2,2,2-trifluoroethoxy)quinazolin-2-yl)azetidin-1-yl)propionitrile]
124 nM | 91.7 nM | C=CC(=O)N1CC2(CCN(c3nc(C4CCN(C(=O)OC)CC4)nc4c(OCC(F)F)c(-c5c(C)ccc6[nH]ncc56)c(C=C)cc34)CC2)C1 [Example 85, Methyl 4-(4-(2-acryloyl-2,7-diazazospiro [3.5]nonan-7-yl)-8-(2,2-difluoroethoxy)-7-(5-methyl-1H-indazole-4-yl)-6-vinylquinazolin-2-yl) piperidine-1-carboxylic acid]
60.5 nM | 171 nM | C=CC(=O)N1CC2(CCN(c3nc(C4CCN(C)CC4)nc4c(OCCOC)c(-c5c(C)ccc6[nH]ncc56)c(CC)cc34)CC2)C1 [Example 30]
104 nM | 114 nM | C=CC(=O)N1CCN(c2nc(C3CCN(C)CC3)nc3c(OCC(F)(F)F)c(-c4c(C)ccc5[nH]ncc45)c(C=C)cc23)[C@@H](C)C1 [Example 52, 1-((3S)-3-methyl-4-(7-(5-methyl-1H-indazole-4-yl)-2-(1-methylpiperidin-4-yl)-8-(2,2,2-trifluoroethoxy)-6-vinylquinazolin-4-yl)piperazin-1-yl) propyl-2-en-1-one]
9.6 nM | 10.9 nM | C=CC(=O)N1CC2(CCN(c3nc(C4CCN(CCOC)CC4)nc4c(OCC(F)(F)F)c(-c5c(C)ccc6[nH]ncc56)c(CC)cc34)CC2)C1 [Example 35, 1-(7-(6-ethyl-2-(1-(2-methoxyethyl)piperidin-4-yl)-7-(5-methyl-1H-indazol-4-yl)-8-(2,2,2-trifluoroethoxy)quinazolin-4-yl)-2,7-diazaspiro[3.5]nonan-2-yl)prop-2-en-1-one]
5.2 nM | 5.9 nM | C=CC(=O)N1CC2(CCN(c3nc(C4CCN(C5CCN(C(C)=O)CC5)CC4)nc4c(OCC(F)(F)F)c(-c5c(C)ccc6[nH]ncc56)c(C=C)cc34)CC2)C1 [Example 72, 1-(7-(2-(1acetyl-[1,4'-bipiperidine]-4-yl)-7-(5-methyl-1H-indazole-4-yl)-8-(2,2,2-trifluoroethoxy)-6-vinylquinazolin-4-yl)-2,7-diazspiro [3.5]nonan-2-yl) propyl-2-en-1-one]
11.5 nM | 9.8 nM | C=CC(=O)N1CC2(CCN(c3nc(C4CCN(C)CC4)nc4c(OCC(F)F)c(-c5c(C)ccc6[nH]ncc56)c(C=C)cc34)CC2)C1 [Example 48, 1-(7-(8-(2,2-difluoroethoxy)-7-(5-methyl-1H-indazol-4-yl)-2-(1-methylpiperidin-4-yl)-6-vinylquinazolin-4-yl)-2,7-diazspiro [3.5]nonan-2-yl) propyl-2-en-1-one]
18.4 nM | 23.4 nM | C=CC(=O)N1CC2(CCN(c3nc(C4CCN(C5COC5)CC4)nc4c(OCC(F)(F)F)c(-c5c(C)ccc6[nH]ncc56)c(CC)cc34)CC2)C1 [Example 37]
16.5 nM | 60.3 nM | C=Cc1cc2c(N3CCC4(CC3)CN(C(=O)C(=C)F)C4)nc(C3CCN(C)CC3)nc2c(OCC(F)(F)F)c1-c1c(C)ccc2[nH]ncc12 [Example 84, 2-Fluoro-1-(7-(7-(5-methyl-1H-indazol-4-yl)-2-(1-methylpiperidin-4-yl)-8-(2,2,2-trifluoroethoxy)-6-vinylquinazolin-4-yl)-2,7-diazaspiro[3.5]nonan-2-yl)propan-2-en-1-one]
69.7 nM | 42.9 nM | C=CC(=O)N1CC2(CCN(c3nc(C4CCN(C)CC4)nc4c(OC5CCC5)c(-c5c(C)ccc6[nH]ncc56)c(Cl)cc34)CC2)C1 [Example 33]
462 nM | 188 nM | C=CC(=O)N1CCC2(CC1)CN(c1nc(C3CCN(C)CC3)nc3c(OCC(F)(F)F)c(-c4c(C)ccc5[nH]ncc45)c(C=C)cc13)C2 [Example 51, 1-(2-(7-(5-methyl-1H-indazol-4-yl)-2-(1-methylpiperidin-4-yl)-8-(2,2,2-trifluoroethoxy)-6-vinylquinazolin-4-yl)-2,7-diazspiro [3.5]nonan-2-yl) propyl-2-en-1-one]
24.3 nM | 24.1 nM | C=CC(=O)N1CC2(CCN(c3nc(C4CCN(C5CCC(O)CC5)CC4)nc4c(OCC(F)(F)F)c(-c5c(C)ccc6[nH]ncc56)c(C=C)cc34)CC2)C1 (centres unmarked) [Example 73]
16.6 nM | 57.1 nM | C=CC(=O)N1CCC(c2nc(N3CCC4(CC3)CN(C(=O)C=C)C4)c3cc(C=C)c(-c4c(C)ccc5[nH]ncc45)c(OCC(F)(F)F)c3n2)CC1 [Example 64, 1-(4-(4-(2-acryloyl-2,7-diazazospiro [3.5]nonan-7-yl)-7-(5-methyl-1H-indazole-4-yl)-8-(2,2,2-trifluoroethoxy)-6-vinylquinazolin-2-yl)piperidin-1-yl) propyl-2-en-1-one]
19.3 nM | 21.4 nM | C=CC(=O)N1CC2(CCN(c3nc(C4CCN(CC5CC(F)(F)C5)CC4)nc4c(OCC(F)(F)F)c(-c5c(C)ccc6[nH]ncc56)c(C=C)cc34)CC2)C1 [Example 76, 1-(7-(2-(1-((3,3-difluorocyclobutyl)methyl)piperidin-4-yl)-7-(5-methyl-1H-indazole-4-yl)-8-(2,2,2-trifluoroethoxy)-6-vinylquinazolin-4-yl)-2,7-diazspiro [3.5]nonan-2-yl) propyl-2-en-1-one]
13 nM | 32.6 nM | C=CC(=O)N1CC2(CCN(c3nc(C4CCN(C)CC4)nc4c(OCC)c(-c5c(C)ccc6[nH]ncc56)c(CC)cc34)CC2)C1 [Example 25]
155 nM | 169 nM | C=CC(=O)N1CC2(CCN(c3nc(C4CN(C5CCCC5)C4)nc4c(OCC(F)(F)F)c(-c5c(C)ccc6[nH]ncc56)c(CC)cc34)CC2)C1 [Example 44, 1-(7-(2-(1-cyclopentyl-azacyclobutane-3-yl)-6-ethyl-7-(5-methyl-1H-indazole-4-yl)-8-(2,2,2-trifluoroethoxy)quinazolin-4-yl)-2,7-diazarospiro [3.5]nonan-2-yl) propyl-2-en-1-one]
6.7 nM | 10.3 nM | C=CC(=O)N1CC2(CCN(c3nc(C4CCN(C5CCN(C6CC6)CC5)CC4)nc4c(OCC(F)(F)F)c(-c5c(C)ccc6[nH]ncc56)c(C=C)cc34)CC2)C1 [Example 74, 1-(7-(2-(1′-cyclopropyl-[1,4′-bipiperidine]-4-yl)-7-(5-methyl-1H-indazole-4-yl)-8-(2,2,2-trifluoroethoxy)-6-vinylquinazolin-4-yl)-2,7-diazspiro [3.5]nonan-2-yl) propyl-2-en-1-one]
1940 nM | 2190 nM | Cc1ccc2[nH]ncc2c1-c1c(Cl)cc2c(N3CCC4(CC3)CN(C(=O)/C=C/CN(C)C)C4)nc(C3CCN(C)CC3)nc2c1OCC(F)(F)F [Example 87, (E)-1-(7-(6-chloro-7-(5-methyl-1H-indazol-4-yl)-2-(1-methylpiperidine-4-yl)-8-(2,2,2-trifluoroethoxy)quinazolin-4-yl)-2,7-diazaspiro[3.5]nonan-2-yl)-4-(dimethylamino) but-2-en-1-one]
26.3 nM | 22 nM | C=CC(=O)N1CC2(CCN(c3nc(C4CCN(C)CC4)nc4c(OC)c(-c5c(C)ccc6[nH]ncc56)c(C=C)cc34)CC2)C1 [Example 13, 1-(7-(8-methoxy-7-(5-methyl-1H-indazol-4-yl)-2-(1-methylpiperidin-4-yl)-6-vinylquinazolin-4-yl)-2,7-diazaspiro[3.5]nonan-2-yl)prop-2-en-1-one]
39 nM | 47.7 nM | C=CC(=O)N1CC2(CCN(c3nc(C4CN(C5COC5)C4)nc4c(OCC(F)(F)F)c(-c5c(C)ccc6[nH]ncc56)c(CC)cc34)CC2)C1 [Example 40, 1-(7-(6-ethyl-7-(5-methyl-1H-indazole-4-yl)-2-(1-(oxacyclobutan-3-yl)azacyclobutane-3-yl)-8-(2,2,2-trifluoroethoxy)quinazolin-4-yl) 2,7-diazspiro [3.5]nonan-2-yl) propyl-2-en-1-one]
29.3 nM | 43.5 nM | C=CC(=O)N1CC2(CCN(c3nc(C4CCN(C(=O)OC)CC4)nc4c(OCC(F)(F)F)c(-c5c(C)ccc6[nH]ncc56)c(C=C)cc34)CC2)C1 [Example 62, Methyl 4-(4-(2-acryloyl-2,7-diazspiro [3.5]nonan-7-yl)-7-(5-methyl-1H-indazole-4-yl)-8-(2,2,2-trifluoroethoxy)-6-vinylquinazolin-2-yl) piperidine-1-carboxylic acid]
